Results reported in patent US6455551B1, “Use of 1-hydroxy-2-pyridones for treating mucosa diseases which are difficult to treat” (Aventis Pharma Deutschland GmbH, priority 1996, dated 2002).
In brackets after ≈: the same amount, converted by molar mass. Read-outs that look alike come from different tables or passages of the source.

Columns and labels:
Type in all cases: cell-based
Candida guillermondii = experiment: Microtiter dilution MIC test in RPMI 1640 medium, Candida guillermondii strain; conditions: Candida guillermondii B47; 35° C., 48 hours; read-out: Minimum inhibitory concentration (MIC)
Protocol: (§1) Fluconazole-resistant strains of Candida albicans are isolated from patients who have been treated, for example, with fluconazole for more than one year. For this purpose, samples are taken from the patients' mouths and applied, undiluted or diluted 1:100, to an RPMI 1640 agar (Gibco/BRL, Life Technologies GmbH, D-76339 Eggenstein) which contains about 1.0 μg/ml fluconazole. Resistant Candida albicans strains are isolated, further purified on agar and stored isolated in peptone/dextrose slant agar tubes.
(§2) The activity of Compound 1 and fluconazole is determined by the microtiter dilution technique in RPMI 1640 medium. The growth medium RPMI 1640 buffered with 0.165 M morpholinopropanesulfonic acid pH 7.0 is introduced into 96-well microtiter plates. Serial dilutions by a factor of 2 are prepared for Compound 1 and fluconazole to result in final concentrations of 256 to 0.002 μg/ml of Compound 1 and fluconazole. The microtiter plates prepared in this way are incubated with the Candida strains to be tested. For comparison purposes, the two Candida albicans strains ATCC 90028 and 90029 which are not resistant to fluconazole are included in the test. The initial cell count is 1-5 ×10^3 colony-forming units per ml of growth medium. The microtiter plates are incubated at 35° C. for 48 hours. The minimum inhibitory concentration is determined by photometry at 510 nm.

Trichomonas vaginalis = experiment: In vitro activity on protozoa, Trichomonas vaginalis
From the text: (§3) In vitro activity of the Compound 1 on protozoa

Candida glabrata = experiment: Microtiter dilution MIC test in RPMI 1640 medium, Candida glabrata strains; conditions: Nakaseomyces glabratus, 48 h, read-out: Minimum inhibitory concentration (MIC)
Protocol: as §2

Entamoeba histolytica = experiment: In vitro activity on protozoa, Entamoeba histolytica
From the text: as §3

Candida albicans = experiment: Microtiter dilution MIC test in RPMI 1640 medium, Candida albicans strains; conditions: read-out: Minimum inhibitory concentration (MIC)
Protocol: as §1, §2

Candida krusei = experiment: Microtiter dilution MIC test in RPMI 1640 medium, Candida krusei strains; conditions: Pichia kudriavzevii, 48 h, read-out: Minimum inhibitory concentration (MIC)
Protocol: as §1, §2

[1] = 48 h, Candida albicans 94/3, 35° C.
[2] = 48 h, Candida albicans 94/14, 35° C.
[3] = 48 h, Candida albicans 94/57, 35° C.
[4] = 48 h, Candida albicans 94/62, 35° C.
[5] = 48 h, Candida albicans 94/90, 35° C.
[6] = 48 h, Candida albicans 94/118, 35° C.
[7] = 48 h, Candida albicans 94/134, 35° C.
[8] = 48 h, Candida albicans 94/138, 35° C.
[9] = 48 h, Candida albicans 94/222, 35° C.
[10] = 48 h, Candida albicans 94/231, 35° C.
[11] = 48 h, Candida albicans B6, 35° C.
[12] = 48 h, Candida albicans B70, 35° C.
[13] = 48 h, Candida albicans B75, 35° C.
[14] = ATCC90028, 48 h, Candida albicans ATCC 90028 (not resistant to fluconazole), 35° C.
[15] = ATCC90029, 48 h, Candida albicans ATCC 90029 (not resistant to fluconazole), 35° C.

Row | Structure (SMILES) | MIC (Candida guillermondii) | MIC (Candida glabrata; Candida glabrata B12, 35° C.) | MIC (Candida glabrata; Candida glabrata B14, 35° C.) | MIC (Candida glabrata; Candida glabrata B18, 35° C.) | MIC (Candida glabrata; Candida glabrata B21, 35° C.) | MIC (Candida glabrata; Candida glabrata B35, 35° C.) | MIC (Candida glabrata; Candida glabrata B37, 35° C.) | MIC (Candida glabrata; Candida glabrata B38, 35° C.) | MIC (Candida glabrata; Candida glabrata B39, 35° C.) | MIC (Candida glabrata; Candida glabrata B40, 35° C.) | MIC (Candida glabrata; Candida glabrata B50, 35° C.) | MIC (Candida glabrata; Candida glabrata B51, 35° C.) | MIC (Candida albicans; [1]) | MIC (Candida albicans; [2]) | MIC (Candida albicans; [3]) | MIC (Candida albicans; [4]) | MIC (Candida albicans; [5]) | MIC (Candida albicans; [6]) | MIC (Candida albicans; [7]) | MIC (Candida albicans; [8]) | other results
1 | Cc1cc(COc2ccc(Oc3ccc(Cl)cc3)cc2)n(O)c(=O)c1 [Compound 1, 6-[4-(4-chlorophenoxy)phenoxymethyl]-1-hydroxy4-methyl-2(1H)-pyridone] | 1 µg/mL (≈ 2.79 µM) | 0.5 µg/mL (≈ 1.4 µM) | 0.5 µg/mL (≈ 1.4 µM) | 0.5 µg/mL (≈ 1.4 µM) | 1 µg/mL (≈ 2.79 µM) | 1 µg/mL (≈ 2.79 µM) | 1 µg/mL (≈ 2.79 µM) | 1 µg/mL (≈ 2.79 µM) | 0.5 µg/mL (≈ 1.4 µM) | 1 µg/mL (≈ 2.79 µM) | 0.5 µg/mL (≈ 1.4 µM) | 0.5 µg/mL (≈ 1.4 µM) | 2 µg/mL (≈ 5.59 µM) | 2 µg/mL (≈ 5.59 µM) | 1 µg/mL (≈ 2.79 µM) | 1 µg/mL (≈ 2.79 µM) | 1 µg/mL (≈ 2.79 µM) | 2 µg/mL (≈ 5.59 µM) | 1 µg/mL (≈ 2.79 µM) | 1 µg/mL (≈ 2.79 µM) | MIC (Trichomonas vaginalis; 2 of n = 5 strains investigated): 125 µg/mL (≈ 349 µM); MIC (Trichomonas vaginalis; 3 of n = 5 strains investigated): 31.2 µg/mL (≈ 87.2 µM); MIC (Entamoeba histolytica; 3 of n = 4 strains investigated): 62.5 µg/mL (≈ 175 µM); MIC (Entamoeba histolytica; remaining strain of n = 4 strains investigated (count not given)): 31.2 µg/mL (≈ 87.2 µM); MIC (Candida albicans; [9]): 1 µg/mL (≈ 2.79 µM); MIC (Candida albicans; [10]): 1 µg/mL (≈ 2.79 µM); MIC (Candida albicans; [11]): 1 µg/mL (≈ 2.79 µM); MIC (Candida albicans; [12]): 1 µg/mL (≈ 2.79 µM); MIC (Candida albicans; [13]): 1 µg/mL (≈ 2.79 µM); MIC (Candida albicans; [14]): 1 µg/mL (≈ 2.79 µM); MIC (Candida albicans; [15]): 0.5 µg/mL (≈ 1.4 µM); MIC (Candida krusei; Candida krusei B1, 35° C.): 0.5 µg/mL (≈ 1.4 µM); MIC (Candida krusei; Candida krusei B4, 35° C.): 1 µg/mL (≈ 2.79 µM)
2 | OC(Cn1cncn1)(Cn1cncn1)c1ccc(F)cc1F [Fluconazole, fluconazole, reference compound] | 4 µg/mL (≈ 13.1 µM) | 4 µg/mL (≈ 13.1 µM) | 2 µg/mL (≈ 6.53 µM) | 8 µg/mL (≈ 26.1 µM) | 8 µg/mL (≈ 26.1 µM) | 8 µg/mL (≈ 26.1 µM) | 16 µg/mL (≈ 52.2 µM) | 16 µg/mL (≈ 52.2 µM) | 8 µg/mL (≈ 26.1 µM) | 16 µg/mL (≈ 52.2 µM) | 16 µg/mL (≈ 52.2 µM) | 32 µg/mL (≈ 104 µM) | 32 µg/mL (≈ 104 µM) | 32 µg/mL (≈ 104 µM) | > 256 µg/mL | > 256 µg/mL | > 256 µg/mL | > 256 µg/mL | > 256 µg/mL | > 256 µg/mL | MIC (Candida albicans; [9]): > 256 µg/mL; MIC (Candida albicans; [10]): > 256 µg/mL; MIC (Candida albicans; [11]): 1 µg/mL (≈ 3.27 µM); MIC (Candida albicans; [12]): > 256 µg/mL; MIC (Candida albicans; [13]): 2 µg/mL (≈ 6.53 µM); MIC (Candida albicans; [14]): 0.5 µg/mL (≈ 1.63 µM); MIC (Candida albicans; [15]): 1 µg/mL (≈ 3.27 µM); MIC (Candida krusei; Candida krusei B1, 35° C.): 32 µg/mL (≈ 104 µM); MIC (Candida krusei; Candida krusei B4, 35° C.): 16 µg/mL (≈ 52.2 µM)
